According to patent US12343350B2, “Istaroxime-containing intravenous formulation for the treatment of acute heart failure (AHF)” (Windtree Therapeutics, Inc., priority 2019, dated 2025):
Where two headings read alike, the source gives them in different places. Marks after values point to notes of the source that are not given here.

Tests used:
SERCA2a = SERCA2a (Canis lupus familiaris (Dog) (Canis familiaris), UniProt O46674); test: SERCA2a ATPase activity in heart-derived SR microsomes from normal dog; type: biochemical; details: for % increase vs control (Vmax) / Vmax: normal dog SR microsomes; for Vmax: mean ± SD
Procedure: Male beagle dogs were used for obtaining cardiac tissues for SERCA2a-enriched sarcoplasmic reticulum preparations. Healthy dogs were utilized for obtaining the data in Table 3. Chronic heart failure was induced in dogs by multiple intracoronary microembolizations with polystyrene latex microspheres ([…], Polysciences, Warrington, PA, USA) as described previously (see Sabbah H N et al., Am J Physiol. 1991; 260:H1379-84). The experiments were conducted in the General Pharmacology Department of Sigma-Tau, Rome, Italy.
Left ventricle tissues were dissected, homogenized in 4 volumes of 10 mM NaHCO3 (pH 7), 1 mM PMSF, 10 μg/ml Aprotinin and Leupeptin and centrifuged at 12.000 g for 15 minutes, as described in Nediani C. et al. (J Biol Chem. 1996; 271:19066-73). Supernatants were filtered and centrifuged at 100.000 g for 30 min. Contractile proteins were extracted by suspending the pellets with 0.6 M KCl, 30 mM Histidine, pH 7 and further centrifugation at 100.000 g for 30 min. Final pellets were reconstituted with 0.3 M Sucrose, 30 mM Histidine, pH 7.
SERCA2a activity was measured in vitro as ^32P-ATP hydrolysis at different Ca2^+ concentrations (100 to 3000 nM) in the absence and presence of the tested compounds as described previously (see Micheletti R. et al., Am J Card 2007; 99:24A-32A). Increasing concentrations of each compound (from 0.05 to 300 nM) were pre-incubated with 2 μg of microsomes for 5 min at 4° C. in 80 μl of a solution containing 100 mM KCl, 5 mM MgCl2, 1 μM A23187, 20 mM Tris, pH 7.5. Then, 20 μl of 5 mM Tris-ATP containing 50 nCi of ^32P-ATP (3-10 Ci/mmol, Perkin Elmer) was added. The ATP hydrolysis was continued for 15 min at 37° C. and was stopped by acidification with 100 μl of 20% v/v ice-cold perchloric acid. ^32P was separated by centrifugation with activated charcoal (Norit A, SERVA) and the radioactivity was measured. SERCA2a-dependent activity was identified as the portion of total hydrolytic activity inhibited by 10 μM cyclopiazonic acid (see Seidler N W. et al., J Biol Chem. 1989; 264:17816-23).
Dose-response curves were fitted by using a sigmoidal curve fitting software and the maximal velocity (Vmax) activity and the Kd Ca2^+ were calculated (Synergy Software KaleidaGraph 3.6).
The compounds disclosed herein were tested on SERCA2a ATPase activity prepared from normal and failing dogs in a range of concentrations from […]. The effect has been expressed as % increase of the Vmax activity of a control sample run in the absence of compound. Data are mean & SD, where n indicates the number of experiments.

dog renal Na,K-ATPase = dog renal Na,K-ATPase (Canis lupus familiaris (Dog) (Canis familiaris), UniProt P50997); test: Inhibition of dog renal Na,K-ATPase activity (32P-ATP); type: biochemical
Procedure: Kidneys were sliced and the outer medulla was dissected, pooled and suspended (1 g/10 ml) in a sucrose-histidine solution, containing 250 mM sucrose, 30 mM histidine and 5 mM EDTA, pH 7.2 and homogenized. The homogenate was centrifuged at 6.000 g for 15 min, the supernatant was decanted and centrifuged at 48.000 g for 30 min. The pellet was suspended in the sucrose-histidine buffer and incubated for 20 min with a sodium-dodecyl-sulphate (SDS) solution dissolved in a gradient buffer, containing 25 mM imidazole and 1 mM EDTA, pH 7.5. […] The pellet was suspended in the gradient buffer.
Increasing concentrations of the standard ouabain, or tested compound, were incubated with 0.3 μg of purified dog kidney enzyme for 10 min at 37° C. in 120 μl final volume of a medium containing 140 mM NaCl, 3 mM MgCl2, 50 mM Hepes-Tris, 3 mM ATP at a pH 7.5. Then, 10 μl of incubation solution containing 10 mM KCl and 20 nCi of ^32P-ATP (3-10 Ci/mmol, Perkin Elmer) was added, and the reaction was continued for 15 min at 37° C. The reaction was then stopped by acidification with 20% v/v ice-cold perchloric acid. ^32P was separated by centrifugation with activated Charcoal (Norit A, Serva) and the radioactivity was measured. The inhibitory activity was expressed as percent of the control samples carried out in the absence of ouabain or tested compound.

[1] = Acute toxicity (LD50) in mouse; type: in vivo; details: Albino Swiss CD-1, in vivo, single administration
Procedure: (§1) Acute toxicity has been determined in the mouse (Albino Swiss CD-1, body weight 30 g). Mice were orally treated, or intravenously injected, with single administration of increasing doses of the test substance to identify the dose causing 50% mortality. Mortality occurred within 30 min after the administration and survival after 24 h. The acute toxicity (LD50) was then assessed.
(§2) The acute toxicity of the tested compound PST 3093 was determined in the mouse (Albino Swiss CD-1, body weight 30 g). Compound PST 3093 was orally administered or intravenously injected at increasing doses to identify the dose causing 50% mortality. Mortality occurred within 30 min after the administration and survival after 24 h.

[2] = Plasma levels of istaroxime and its metabolites in patients (HPLC-MS/MS); type: in vivo, human; details: for plasma concentration course during the infusion period: 24 h infusion of 0.5 or 1 μg/kg/min istaroxime, Caucasian and Chinese patients
Procedure: The quantitative determination of PST 2744 and its metabolite PST 2915 in human plasma was determined by the HPLC-MS/MS method that included a mobile phase of 70:30 acetonitrile/water, 1 mL/L 1M formic acid, and 1 mL/L 5M ammonium acetate. The flow rate was 1 mL/min, and the chromatographic separation was by reversed phase HPLC (Column: SYNERGI 4μ POLAR-RP80A 150×4.6 mm equipped with a Security-guard Phenomenex Polar-RP 4×3 mm). Detection was performed by MS/MS, and the acquisition mode was Multiple Reaction Monitoring (MRM).
The quantitative determination of istaroxime metabolies PST 2922 and PST 3093 in human plasma was also measured by the HPLC-MS/MS method. In this case, the mobile phase was 50:50 H2 O/CH3 CN (v/v) and 500 μL/L 98-100% HCOOH. The flow rate was 1 mL/min and chromatographic separation was done by reversed-phase HPLC (Column: Phenomenex Phenyl hexyl, 150×4.6 mm, equipped with a Phenomenex phenyl propyl guard-cartridge) under isocratic conditions. Detection was performed by MS/MS (376.0→282.0 amu for PST2922, 378.0→284.0 amu for PST 3093 and 362.0→268.0 amu for PST 3418, IS).

[3] = tested on: mouse (Albino Swiss CD-1); test: Acute toxicity (LD50) in mouse; type: in vivo; details: single administration
Procedure: as §1, §2

SERCA2a, sequence (O46674 whole entry): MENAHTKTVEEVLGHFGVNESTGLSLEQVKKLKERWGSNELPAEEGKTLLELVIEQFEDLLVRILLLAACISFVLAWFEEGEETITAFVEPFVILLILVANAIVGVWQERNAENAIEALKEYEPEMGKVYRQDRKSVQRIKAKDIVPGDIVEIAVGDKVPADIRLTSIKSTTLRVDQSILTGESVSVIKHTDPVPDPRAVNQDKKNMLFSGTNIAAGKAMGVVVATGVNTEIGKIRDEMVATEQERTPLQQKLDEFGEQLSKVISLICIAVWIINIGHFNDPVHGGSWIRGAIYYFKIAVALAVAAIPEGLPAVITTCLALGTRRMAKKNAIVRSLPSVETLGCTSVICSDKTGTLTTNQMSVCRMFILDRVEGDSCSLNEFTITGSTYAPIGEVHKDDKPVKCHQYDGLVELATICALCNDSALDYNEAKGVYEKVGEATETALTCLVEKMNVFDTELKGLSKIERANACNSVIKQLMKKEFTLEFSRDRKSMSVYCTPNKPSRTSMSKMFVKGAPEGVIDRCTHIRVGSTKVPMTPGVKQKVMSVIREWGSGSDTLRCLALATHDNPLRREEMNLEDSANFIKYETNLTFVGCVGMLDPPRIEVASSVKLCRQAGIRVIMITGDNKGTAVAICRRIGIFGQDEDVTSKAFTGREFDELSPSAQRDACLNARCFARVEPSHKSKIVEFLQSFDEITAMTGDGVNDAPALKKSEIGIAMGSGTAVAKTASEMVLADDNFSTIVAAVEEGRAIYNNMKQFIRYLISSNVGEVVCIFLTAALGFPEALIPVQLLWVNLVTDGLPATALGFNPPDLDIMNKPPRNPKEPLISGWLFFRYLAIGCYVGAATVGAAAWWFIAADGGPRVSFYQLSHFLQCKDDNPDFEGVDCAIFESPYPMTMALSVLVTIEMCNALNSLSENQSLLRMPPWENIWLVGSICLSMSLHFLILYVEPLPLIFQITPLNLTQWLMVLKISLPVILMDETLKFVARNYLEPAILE

Compound | % increase vs control (Vmax) (SERCA2a; 0.1 nM compound) | Vmax (SERCA2a; 0.1 nM compound) [μmol/min/mg prot] | % increase vs control (Vmax) (SERCA2a; 10 nM compound) | Vmax (SERCA2a; 10 nM compound) [μmol/min/mg prot] | SERCA2a activity stimulation (SERCA2a; normal dog SR vesicles, 0.1 nM and 10 nM) | IC50 (dog renal Na,K-ATPase; purified dog kidney enzyme, 37° C., read-out: IC50, inhibition of dog renal Na,K-ATPase) [nM] | LD50 at 24 h ([1]; iv) [mg/kg] | LD50 at 24 h ([1]; os (oral)) [mg/kg] | plasma concentration course during the infusion period [2] | plasma levels ([2]; at 48 hours) | plasmatic level ([2]; following time points, whole duration of the infusion) | concentration at 3 h ([2]; human, plasma, intravenous, at 3 hour time point of infusion, read-out: plasmatic level) [ng/mL] | IC50 (dog renal Na,K-ATPase) [nM] | LD50 ([3]; i.v.) [mg/kg] | LD50 ([3]; os (oral)) [mg/kg] | average plasma level ([2]; at 48 hours, 1 μg/kg/min istaroxime infusion) | average plasma level ([2]; at 48 hours, Caucasian patients, 0.5 μg/kg/min istaroxime infusion) | average plasma level ([2]; at 48 hours, Chinese patients, 0.5 μg/kg/min istaroxime infusion) | average plasma concentration ([2]; at 70 hours, or 46 hours post-infusion) | average plasma concentration ([2]; by the end of the 24 h istaroxime infusion period (0.5 or 1 μg/kg/min))
C[C@]12CCC(=NOCCN)C[C@@H]1C(=O)C[C@@H]1[C@@H]2CC[C@]2(C)C(=O)CC[C@@H]12 [Istaroxime, (3Z,5a)-3-[(2-aminoethoxy)imino]androstane-6,17-dione] | 14* % | 1.423 ± 0.123 | 20** % | 1.505 ± 0.111 | significantly stimulated | 140 | 29 to 32 | 200 | remain relatively constant | not detectable | about 8 ng/ml | ~10 | – | – | – | – | – | – | – | –
C[C@]12CCC(=NOCC(=O)O)CC1[C@H](O)CC1C2CC[C@]2(C)C(=O)CCC12 (stereo partly drawn) [PST 3093, (E,Z)-[(6-beta-hydroxy-17-oxoandrostan-3-ylidene)amino]oxyacetic acid] | 25** % | – | 19** % | – | – | – | > 250 | > 200 | continue to accumulate | – | – | – | > 100000 | >250 | >200 | about 21.2 ng/ml | about 25.02 ng/ml | about 12.5 ng/ml | exceeding 10 ng/mL | exceeding 60 ng/mL
